Source: US20100069421A1, “COMPOSITIONS AND METHODS FOR THE TREATMENT OF RADIATION PROCTOSIGMOITIS” (priority 2006, published 2010)

System: patient experiencing radiation induced enteritis
Assay: Administration of rifaximin to a patient experiencing radiation induced enteritis
Assay type: in vivo, human
Conditions: no data shown
Description: The recognition of bacteria as primarily causative of the symptomatology seen in cancer patients represents a paradigm shift in that bacterial colonization, overgrowth, and/or invasion are a potentially curable or controllable source of a patient's discomfort. Furthermore, this represents a paradigm shift in that prior measures commonly used in the amelioration of such problems were supportive in nature, addressing the symptoms of these conditions and not the root cause itself. This permits greater targeting of the symptoms' cause and results in improved efficacy of symptom amelioration, while at the same time causing fewer adverse effects, as would be commonly seen with supportive measures such as traditional anti-diarrheals. […] Furthermore, it enables the physician to treat the cause of the symptoms in such a way that suboptimally effective supportive measures can not. This is seen in terms of greater targeting of therapy, fewer drug interactions, and improved tolerance to therapy. Particular benefit is seen with this therapy because it may prevent or ameliorate symptoms that would otherwise necessitate a break in treatment to allow the patient to recover from their symptoms. […]

## CO[C@H]1/C=C/O[C@@]2(C)Oc3c(C)c(O)c4c(O)c(c5c(nc6cc(C)ccn65)c4c3C2=O)NC(=O)/C(C)=C\C=C\[C@H](C)[C@H](O)[C@@H](C)[C@@H](O)[C@@H](C)[C@H](OC(C)=O)[C@@H]1C [Rifaximin]
  symptoms of radiation induced enteritis: reduces symptoms of the condition
